Laboratory results reported in paper PMC13478508 (Research, 2026).
No end group written: not given here.

Columns and labels:
[1] = tested on: hsKir6.2+maSUR1 KATP channel; test: Whole-cell patch clamp of KATP channel currents in transfected FreeStyle 293-F cells; format: cell-based, Homo sapiens (Kir6.2) / Mesocricetus auratus (SUR1); details: 1 μM toxin; whole-cell patch clamp at −40 mV; 5 mM BaCl2 baseline; result in words (Fig. 1A, 3H, 5B)
Method: KATP constructs were transfected into FreeStyle 293-F cells using polyethylenimine at a cell density of 1 × 10^6 cells/ml. Cells were cultured in FreeStyle 293 Expression Medium with 1% fetal bovine serum for 24 h before recording. Currents were recorded using whole-cell mode at −40 mV in the pipette and an Axon-patch 200B amplifier (Axon Instruments, USA). Patch electrodes were pulled by a horizontal microelectrode puller (P-1000, Sutter Instrument Co, USA) to tip resistance of 2.0 to 3.0 MΩ. Pipette solution containing 107 mM KCl, 1.2 mM MgCl2, 1 mM CaCl2, 10 mM EGTA, 5 mM Hepes (pH 7.2, KOH), and bath solution containing 40 mM KCl, 100 mM NaCl, 2.6 mM CaCl2, 1.2 mM MgCl2, and 5 mM Hepes (pH 7.4, NaOH) were used for measuring inhibitory effect of wild-type and mutant toxins. Application of 5 mM BaCl2 in bath solution was used to block the KATP currents to determine the baseline. Data analysis was carried out using GraphPad Prism 8.0 or 10.4.0.

cryo-EM structure = biological target: the molecule itself; test: cryo-EM structure

| Molecule | Inhibition of whole-cell KATP current [1] | stoichiometry N (cryo-EM structure) |
| --- | --- | --- |
| Sm3a: toxin from the centipede Scolopendra morsitans (P0DQC2.1), recombinantly expressed; novel KATP channel blocker (AKKEIPYKRQKFPKKSQCIEACANALTNGDKSKITDVKSRFYKCICYYNP; also: two disulfide bonds, pairing not given here for this toxin) | strongly blocks currents | – |
| human Kir6.2 (Q52E) subunit of the cleaved KATP fusion protein (natural protein, also called hsKir6.2; hsKir6.2 (Q52E)) GPLSRKGIIPEEYVLTRLAEDPAKPRYRARQRRARFVSKKGNCNVAHKNIREEGRFLQDVFTTLVDLKWPHTLLIFTMSFLCSWLLFAMAWWLIAFAHGDLAPSEGTAEPCVTSIHSFSSAFLFSIEVQVTIGFGGRMVTEECPLAILILIVQNIVGLMINAIMLGCIFMKTAQAHRRAETLIFSKHAVIALRHGRLCFMLRVGDLRKSMIISATIHMQVVRKTTSPEGEVVPLHQVDIPMENGVGGNSIFLVAPLIIYHVIDANSPLYDLAPSDLHHHQDLEIIVILEGVVETTGITTQARTSYLADEILWGQRFVPIVAEEDGRYSVDYSKFGNTVKVPTPLCTARQLDEDHSLLEALTLASARGPLRKRSVPMAKAKPKFSISPDSLS | – | 4 |
